From patent publication US10301280B2 (Plexxikon Inc., priority 2012, dated 2019)

Columns and labels:
c-kit kinase = c-kit kinase (Homo sapiens (Human), UniProt P10721); experiment: c-Kit biochemical assay (AlphaScreen); details: c-kit biochemical inhibitory activity
Method: Assays for biochemical cell-based activity of c-kit kinase are known in the art, for example, as described in U.S. Pat. Nos. 7,498,342 and 7,846,941, the disclosures of which are hereby incorporated by reference as it relates to such assays. The c-kit (or kinase domain thereof) is an active kinase in AlphaScreen. IC50 values are determined with respect to inhibition of c-Kit kinase activity, where inhibition of phosphorylation of a peptide substrate is measured as a function of compound concentration. Compounds to be tested were dissolved in DMSO to a concentration of 20 mM. These were diluted 30 μl into 120 μl of DMSO (4 mM) and 1 μl was added to an assay plate. These were then serially diluted 1:3 (50 μl to 100 μl DMSO) for a total of 8 points. Plates were prepared such that each kinase reaction is 20 μl in 1× kinase buffer (50 mM HEPES, pH 7.2, 5 mM MgCl2, 5 mM MnCl2, 0.01% NP-40, 0.2% BSA), 5% DMSO and 10 µM ATP. Substrate was 100 nM biotin-(E4Y)3 (Open Source Biotech, Inc.). C-kit kinase was at 0.1 ng per sample. After incubation of the kinase reaction for 1 hour at room temperature, 5 μl of donor beads (Streptavidin coated beads (Perkin Elmer Life Science) final concentration 1 μg/ml) in stop buffer (50 mM EDTA in 1× kinase buffer) was added, the sample was mixed and incubated for 20 minutes at room temperature before adding 5 μl of acceptor beads (PY20 coated beads (Perkin Elmer Life Science) final concentration 1 μg/ml) in stop buffer. The samples were incubated for 60 minutes at room temperature and the signal per well was read on AlphaQuest reader. Phosphorylated substrate results in binding of the PY20 antibody and association of the donor and acceptor beads such that signal correlates with kinase activity. The signal vs. compound concentration was used to determine the IC50.
Compounds were also tested using a similar assay with a 10-fold higher ATP concentration. For these samples, compounds to be tested were dissolved in DMSO to a concentration of 20 mM. These were diluted 30 μl into 120 μl of DMSO (4 mM) and 1 μl was added to an assay plate. These were then serially diluted 1:3 (50 μl to 100 μl DMSO) for a total of 8 points. Plates were prepared such that each kinase reaction is 20 μl in 1× kinase buffer (25 mM HEPES, pH 7.5, 2 mM MgCl2, 2 mM MnCl2, 0.01% Tween-20, 1 mM DTT, and 0.001% BSA), 5% DMSO and 100 µM ATP. Substrate was 30 nM biotin-(E4Y)10 (Upstate Biotech, Cat#12-440). C-kit kinase was at 1 ng per sample. After incubation of the kinase reaction for 1 hour at room temperature, 5 μl of donor beads (Streptavidin coated beads (Perkin Elmer Life Science) final concentration 10 μg/ml) in stop buffer (25 mM HEPES pH 7.5, 100 mM EDTA, 0.3% BSA) was added, the sample was mixed and incubated for 20 minutes at room temperature before adding 5 μl of acceptor beads (PY20 coated beads (Perkin Elmer Life Science) final concentration 10 μg/ml) in stop buffer. The samples were incubated for 60 minutes at room temperature and the signal per well was read on AlphaQuest or Envision reader (Perkin Elmer Life Science). Phosphorylated substrate results in binding of the PY20 antibody and association of the donor and acceptor beads such that signal correlates with kinase activity. The signal vs. compound concentration was used to determine the IC50.
The c-kit enzyme used in the above assay was either obtained from Cell Signaling Technology (Cat. #7754) or was prepared as follows: A plasmid encoding kit (DNA and encoded protein sequences shown below) was engineered using common polymerase chain reaction (PCR) methods. Complementary DNA cloned from various human tissues were purchased from Invitrogen, and these were used as substrates in the PCR reactions. Specific custom synthetic oligonucleotide primers were designed to initiate the PCR product, and also to provide the appropriate restriction enzyme cleavage sites for ligation with the plasmids. […]

[1] = tested on: BaF3-FL KIT D816V or BaF3-FL KIT V560G/D816V cell line; experiment: Cell-based assays of c-Kit mutant kinase activity (cell growth, ATPlite); details: at least one of the c-kit cell assays of Example 26
Summary of the method: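 BaF3 cells dependent on full-length human KIT (D816V or V560G/D816V) seeded at 1×10^4 cells/well in RPMI with 10% FBS. Eight-point 1:3 dilutions from 10 μM top final (0.2% DMSO), 3 days at 37° C., 5% CO2. ATPlite luminescence gave IC50.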

c-kit mutant D816V = c-kit mutant D816V (Homo sapiens (Human), UniProt P10721, D816V/DEL694-753); experiment: c-Kit mutant D816V biochemical assay (AlphaScreen); details: c-kit D816V biochemical inhibitory activity
Method: The c-kit mutant D816V (or kinase domain thereof) is an active kinase in AlphaScreen. IC50 values are determined with respect to inhibition of c-Kit mutant D816V kinase activity, where inhibition of phosphorylation of a peptide substrate is measured as a function of compound concentration. Compounds to be tested were dissolved in DMSO to a concentration of 20 mM. These were diluted 30 μl into 120 μl of DMSO (4 mM) and 1 μl was added to an assay plate. These were then serially diluted 1:3 (50 μl to 100 μl DMSO) for a total of 8 points. Plates were prepared such that each kinase reaction is 20 μl in 1× kinase buffer (25 mM HEPES, pH 7.2, 8 mM MgCl2, 2 mM MnCl2, 50 mM NaCl, 0.01% Brij, 1 mM DTT, 0.01% BSA), 5% DMSO and 10 μM ATP. Substrate was 30 nM biotin-(E4Y)10 (EMD Millipore, Cat#12-440). C-kit mutant D816V kinase was at 0.75 ng per sample. After incubation of the kinase reaction for 30 minutes at room temperature, 5 μl of donor beads (Streptavidin coated beads (Perkin Elmer Life Science) final concentration 7.5 μg/ml) in stop buffer (25 mM Hepes pH 7.5, 100 mM EDTA, 0.01% BSA) was added, the sample was mixed and incubated for 20 minutes at room temperature before adding 5 μl of acceptor beads (PY20 coated beads (Perkin Elmer Life Science) final concentration 7.5 ug/ml) in stop buffer. The samples were incubated for 60 minutes at room temperature and the signal per well was read on EnVision reader. Phosphorylated substrate results in binding of the PY20 antibody and association of the donor and acceptor beads such that signal correlates with kinase activity. The signal vs. compound concentration was used to determine the IC50.
Recombinant c-kit mutant D816V (residues 551-934, kinase insertion domain residues 694-753 deleted) with a 6x-histidine N-terminal tag was expressed in E. coli Arctic Express (DE3) RIL (Stratagene). Cells were grown in Terrific Broth (TB) media to an OD600 of 0.6 at 37° C. at which temperature was reduced to 10° C., protein was induced with 1.0 mM IPTG for 18 hours and harvested by centrifugation at 8000×g for 20 minutes. Cells were re-suspended in 0.1M KPO4 pH 8.0, 250 mM NaCl, 10% Glycerol, 0.75% NP-40, 25 mM Imidazole, 5 mM BME with 0.2 mg/ml Lysosyme, 2.0 mM PMSF, 25 μg/ml DNAse I, incubated in ice for 30 minutes and lyzed with a cell disruptor (MicroFluidics). The lysate was clarified by centrifugation at 20,000×g for 2 hours. The protein was captured with Talon resin (Clontech). Contaminating proteins were washed off with 25 mM Tris-HCl pH 8.3, 250 mM NaCl, 15% Glycerol, 1% Triton X-100, and protein eluted using 100 mM EDTA. The protein was further purified using Gel Filtration column 26/600 Superdex 200 (GE) in 50 mM Tris-HCl, pH 8.0, 250 mM NaCl, 15% Glycerol, 5 mM BME. The protein was aliquoted and flash-frozen in liquid Nitrogen.

Sequence of c-kit mutant D816V (P10721 other isoform, or with tags, fused parts or gaps D816V/del 694-753): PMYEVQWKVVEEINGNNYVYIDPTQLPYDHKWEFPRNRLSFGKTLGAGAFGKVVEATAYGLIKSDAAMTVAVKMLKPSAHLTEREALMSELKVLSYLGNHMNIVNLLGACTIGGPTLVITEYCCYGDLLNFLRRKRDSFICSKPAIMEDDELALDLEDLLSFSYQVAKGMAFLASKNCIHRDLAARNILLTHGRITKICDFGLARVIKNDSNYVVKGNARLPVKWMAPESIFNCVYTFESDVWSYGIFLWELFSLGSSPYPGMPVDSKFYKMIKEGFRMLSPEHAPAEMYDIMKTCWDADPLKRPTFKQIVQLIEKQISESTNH
Sequence of c-kit kinase (P10721 26-976): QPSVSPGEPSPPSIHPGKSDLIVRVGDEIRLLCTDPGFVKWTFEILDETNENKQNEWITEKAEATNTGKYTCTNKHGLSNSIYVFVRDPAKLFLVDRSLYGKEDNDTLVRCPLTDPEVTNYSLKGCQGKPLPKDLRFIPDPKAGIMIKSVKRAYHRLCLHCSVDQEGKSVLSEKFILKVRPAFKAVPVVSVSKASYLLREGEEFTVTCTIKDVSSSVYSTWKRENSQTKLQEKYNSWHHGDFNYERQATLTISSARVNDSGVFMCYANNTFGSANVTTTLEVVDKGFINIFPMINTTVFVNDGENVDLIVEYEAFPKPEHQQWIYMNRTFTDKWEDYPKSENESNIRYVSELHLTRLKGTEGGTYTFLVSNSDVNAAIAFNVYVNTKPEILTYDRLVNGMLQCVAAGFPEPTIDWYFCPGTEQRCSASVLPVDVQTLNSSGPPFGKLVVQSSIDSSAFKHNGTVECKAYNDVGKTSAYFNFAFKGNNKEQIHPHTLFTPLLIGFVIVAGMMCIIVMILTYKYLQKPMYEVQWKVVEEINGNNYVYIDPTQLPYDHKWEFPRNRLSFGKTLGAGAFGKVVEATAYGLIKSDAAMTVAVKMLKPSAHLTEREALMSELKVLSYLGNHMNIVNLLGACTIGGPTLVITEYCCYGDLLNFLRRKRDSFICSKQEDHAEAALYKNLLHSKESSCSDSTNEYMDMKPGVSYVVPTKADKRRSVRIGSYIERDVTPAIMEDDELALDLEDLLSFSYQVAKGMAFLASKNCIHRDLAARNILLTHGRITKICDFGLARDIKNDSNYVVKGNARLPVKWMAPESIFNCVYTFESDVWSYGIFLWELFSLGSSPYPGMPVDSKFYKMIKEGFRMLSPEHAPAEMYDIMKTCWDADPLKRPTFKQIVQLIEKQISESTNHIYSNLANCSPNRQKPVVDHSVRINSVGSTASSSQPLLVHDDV

Cc1n[nH]c(C(=O)Nc2cnc3[nH]c(-c4ccc(F)c(C)c4C)cc3c2)c1C [P-2279, N-[2-(4-fluoro-2,3-dimethyl-phenyl)-1H-pyrrolo[2,3-b]pyridin-5-yl]-3,4-dimethyl-1H-pyrazole-5-carboxamide]
IC50 (c-kit kinase): 10 to 200 µM
IC50 [1]: < 10000 nM

NC(=O)c1cccc(C(=O)Nc2cnc3[nH]c(-c4ccc(F)cc4)cc3c2)c1 [P-2020, N3-[2-(4-fluorophenyl)-1H-pyrrolo[2,3-b]pyridin-5-yl]benzene-1,3-dicarboxamide]
IC50 (c-kit kinase): 1 to 10 µM
IC50 [1]: < 10000 nM

Cc1n[nH]c(C(=O)Nc2cnc3[nH]c(-c4ccc(C#N)c(N5CCCC5)c4)cc3c2)c1C [P-2120, N-[2-(4-cyano-3-pyrrolidin-1-yl-phenyl)-1H-pyrrolo[2,3-b]pyridin-5-yl]-3,4-dimethyl-1H-pyrazole-5-carboxamide]
IC50 (c-kit mutant D816V): 0.0001 to 1 µM
IC50 [1]: < 10000 nM

CNS(=O)(=O)c1cccc(-c2cc3cc(NC(=O)c4[nH]nc(C)c4C)cnc3[nH]2)c1 [P-2121, 3,4-dimethyl-N-[2-[3-(methylsulfamoyl)phenyl]-1H-pyrrolo[2,3-b]pyridin-5-yl]-1H-pyrazole-5-carboxamide]
IC50 (c-kit mutant D816V): 0.0001 to 1 µM
IC50 [1]: < 10000 nM

Cc1c(C(F)F)n[nH]c1C(=O)Nc1cnc2[nH]c(-c3ccc(F)cc3)cc2c1 [P-2287, 3-(difluoromethyl)-N-[2-(4-fluorophenyl)-1H-pyrrolo[2,3-b]pyridin-5-yl]-4-methyl-1H-pyrazole-5-carboxamide]
IC50 (c-kit mutant D816V): 0.0001 to 1 µM
IC50 [1]: < 10000 nM

O=C(Nc1cnc2[nH]c(-c3ccc(F)cc3)cc2c1)c1cc(C(F)F)n[nH]1 [P-2172, 3-(difluoromethyl)-N-[2-(4-fluorophenyl)-1H-pyrrolo[2,3-b]pyridin-5-yl]-1H-pyrazole-5-carboxamide]
IC50 (c-kit mutant D816V): 1 to 10 µM
IC50 [1]: < 10000 nM

Cc1n[nH]c(C(=O)Nc2cnc3[nH]c(-c4cc(F)cc(N5CCOCC5)c4)cc3c2)c1C [P-2078, N-[2-(3-fluoro-5-morpholino-phenyl)-1H-pyrrolo[2,3-b]pyridin-5-yl]-3,4-dimethyl-1H-pyrazole-5-carboxamide]
IC50 (c-kit mutant D816V): 0.0001 to 1 µM
IC50 [1]: < 10000 nM

Cc1n[nH]c(C(=O)Nc2cnc3[nH]c(-c4cccc(OCCN5CCOCC5)c4)cc3c2)c1C [P-2066, 3,4-dimethyl-N-[2-[3-(2-morpholinoethoxy)phenyl]-1H-pyrrolo[2,3-b]pyridin-5-yl]-1H-pyrazole-5-carboxamide]
IC50 (c-kit mutant D816V): 0.0001 to 1 µM
IC50 [1]: < 10000 nM

Cc1cc(C(=O)Nc2cnc3[nH]c(C#CCF)cc3c2)[nH]n1 [P-2068, N-[2-(3-fluoroprop-1-ynyl)-1H-pyrrolo[2,3-b]pyridin-5-yl]-3-methyl-1H-pyrazole-5-carboxamide]
IC50 (c-kit mutant D816V): 1 to 10 µM
IC50 [1]: < 10000 nM

Cc1n[nH]c(C(=O)Nc2cnc3[nH]c(-c4cnc(N5CCOCC5)nc4)cc3c2)c1C [P-2158, 3,4-dimethyl-N-[2-(2-morpholinopyrimidin-5-yl)-1H-pyrrolo[2,3-b]pyridin-5-yl]-1H-pyrazole-5-carboxamide]
IC50 (c-kit mutant D816V): 0.0001 to 1 µM
IC50 [1]: < 10000 nM

Cc1n[nH]c(C(=O)Nc2cnc3[nH]c(-c4ccccc4)nc3c2)c1C [P-2145, 3,4-dimethyl-N-(2-phenyl-3H-imidazo[4,5-b]pyridin-6-yl)-1H-pyrazole-5-carboxamide]
IC50 (c-kit mutant D816V): 0.0001 to 1 µM
IC50 [1]: < 10000 nM

COc1ccc(-c2cc3cc(NC(=O)c4[nH]nc(C)c4C)cnc3[nH]2)c(C)n1 [P-2169, N-[2-(6-methoxy-2-methyl-3-pyridyl)-1H-pyrrolo[2,3-b]pyridin-5-yl]-3,4-dimethyl-1H-pyrazole-5-carboxamide]
IC50 (c-kit mutant D816V): 0.0001 to 1 µM
IC50 [1]: < 10000 nM

Cc1n[nH]c(C(=O)Nc2cnc3[nH]c(-c4cccc(F)c4C)cc3c2)c1C [P-2146, N-[2-(3-fluoro-2-methyl-phenyl)-1H-pyrrolo[2,3-b]pyridin-5-yl]-3,4-dimethyl-1H-pyrazole-5-carboxamide]
IC50 (c-kit mutant D816V): 0.0001 to 1 µM
IC50 [1]: < 10000 nM

Cc1n[nH]c(C(=O)Nc2cnc3[nH]c(-c4cccc(C(=O)NCC(C)C)c4)cc3c2)c1C [P-2276, N-[2-[3-(isobutylcarbamoyl)phenyl]-1H-pyrrolo[2,3-b]pyridin-5-yl]-3,4-dimethyl-1H-pyrazole-5-carboxamide]
IC50 (c-kit mutant D816V): 0.0001 to 1 µM
IC50 [1]: < 10000 nM

Cc1ccc(-c2cc3cc(NC(=O)c4[nH]nc(C)c4C)cnc3[nH]2)cn1 [P-2123, 3,4-dimethyl-N-[2-(6-methyl-3-pyridyl)-1H-pyrrolo[2,3-b]pyridin-5-yl]-1H-pyrazole-5-carboxamide]
IC50 (c-kit mutant D816V): 0.0001 to 1 µM
IC50 [1]: < 10000 nM

Cc1n[nH]c(C(=O)Nc2cnc3[nH]c(-c4cnc(NC5CC5)nc4)cc3c2)c1C [P-2157, N-[2-[2-(cyclopropylamino)pyrimidin-5-yl]-1H-pyrrolo[2,3-b]pyridin-5-yl]-3,4-dimethyl-1H-pyrazole-5-carboxamide]
IC50 (c-kit mutant D816V): 0.0001 to 1 µM
IC50 [1]: < 10000 nM
